Consider 7 compounds from patent publication US7947505B2, “Method for testing efficacy of antithrombotic agent” (priority 2005, dated 2011).

Assay [1] has as its system blood. The following applies: Hep 0.1 U/mL, ARG 0.3 μg/mL, Col 10 μg/mL, ADP 8.3 μM/L, cited from earlier work.
Assay [2] deals with blood. Briefly: Thromboelastograph of blood with no antithrombotic agent administered, with heparin or argatroban with or without ADP or collagen added. The following applies: for change of the R value lengthened by anticoagulant when ADP or collagen is added: blood coagulation function normal, no antithrombotic agent administered, heparin or argatroban present. Format: cell-based, human. From the text: (§1) The present invention is described below based on embodiments. The thromboelastograph will be described first. A thromboelastograph is an apparatus that tracks the process of blood coagulation by the clot elasticity in whole blood. […] The reaction time R representing the time when the range of the clot elasticity value reaches 2 mm, the coagulation time K representing the time when the range of the clot elasticity value reaches 20 mm, the maximum amplitude MA of the range of the clot elasticity values, the angle ANG formed by a tangent drawn on the graph of the changes in clot elasticity, and the like are obtained as numerical values based on the measurement chart, as shown in FIG. 1. The measurement procedure itself merely comprises placing the blood in a cuvette and beginning measurement. A C-TEG3000T machine made by Haemoscope of the United States was used as the thromboelastograph in the examples below.
(§2) The test method using the thromboelastograph will be described next in itemized form. 1) A thromboelastograph is used in measurement. The thromboelastograph used is one in which the measurement part has two or more channels, and the amount of fluid measured is 0.36 mL. 2) The blood of the patient being administered an antithrombotic agent is sampled by a blood sampling tube for coagulation testing. […] 3) 0.02 mL of 0.2 M calcium chloride and 0.32 mL of blood from the blood sampling tube are mixed with 0.01 mL of anticoagulant and 0.01 mL of physiological saline in the first measurement part (first channel) of the thromboelastograph. The calcium chloride neutralizes the citric acid admixed in the blood sampling tube, and coagulation begins. 4) 0.02 mL of 0.2 M calcium chloride and 0.32 mL of blood from the blood sampling tube are mixed with 0.01 mL of anticoagulant and 0.01 mL of adenosine diphosphate (ADP) or collagen in the second measurement part (second channel) of the thromboelastograph. The adenosine diphosphate (ADP) used here is 0.2 μmol of commercial reagent powder dissolved in 0.67 mL of physiological saline. Similarly, the collagen is 1 mg/mL stock solution diluted to a 36% solution by physiological saline. 5) The first channel and second channel are measured simultaneously by the thromboelastograph, and the R values measured on the thromboelastograph are compared. […] It is necessary in this case to strengthen the antithrombotic effect by measures such as increasing the dose or changing the antithrombotic agent being administered. The platelets in the second channel are believed to be readily activated by the ADP or collagen, and blood coagulation is accelerated. […] It is believed in this case that the platelets in the second channel are not readily activated by the ADP or collagen, and blood coagulation is not accelerated.
(§3) In the following examples and comparative examples, the addition of 0.02 mL of physiological saline of 0.2 M calcium chloride to the sampled blood and the addition of […] to the system without ADP or collagen added are common to all examples and are omitted from the explanations of each example and comparative example.
An example of the administration of sulpyrine will be described next. […] The measurement was the same as in Example 1. Blood with 0.1 U/mL of heparin or 0.31 μg/mL of argatroban added and blood with 8.3 μM of ADP or 10 μg/mL of collagen added to these were measured simultaneously by using a thromboelastograph.
An example of the administration of Pletaal will be described next. […] The amounts of heparin, argatroban, ADP, and collagen added were the same as in Example 2.
As a comparative example, blood obtained when no thrombotic agent (*1) had been administered was measured by thromboelastograph. Specifically, systems of heparin, ADP, and collagen added to blood that contained no thrombotic agent and, similarly, systems of argatroban, ADP, and collagen added to blood that contained no thrombotic agent were measured using a thromboelastograph.

Assay [3] relates to blood sampled from a patient being administered an antithrombotic agent. Briefly: Thromboelastograph of blood sampled after administration of an antithrombotic agent, with anticoagulant with or without ADP or collagen added. The following applies: for R value: ADP 8.3 μM, collagen 10 μg/mL. The format is in vivo, human.
Text: as §1, §2, §3
An example of the administration of aspirin as an antithrombotic agent will be described. First, 81 mg/day of aspirin was administered for three days. Blood sampled one hour after oral administration of 40.5 mg of aspirin thereafter was measured using a thromboelastograph. Specifically, thromboelastographic measurements were simultaneously carried out on the sampled blood itself, the same blood with 0.1 U/mL of heparin or 0.31 μg/mL of argatroban added, and blood obtained by adding 8.3 μM of ADP or 10 μg/mL of collagen to these.
Also, 660 mg/day of aspirin was administered for three days, and the blood sampled one hour after oral administration of 330 mg thereafter was measured in the same manner by using a thromboelastograph. […]

In assay [4] the test system is whole blood. The note with it: ADP final concentration 8.3 μM or collagen 10 μg/mL, mean±standard deviation, cited from earlier work; for M A (maximum amplitude): in mm (unit assumed).
The mark [5] stands for this setting: Comparative Example, blood with no antithrombotic agent administered.
[6] abbreviates: no Pletaal administered (Example 3), heparin 0.1 U/mL, argatroban 0.31 μg/mL, ADP 8.3 μM, collagen 10 μg/mL.
Setting [7] is: no sulpyrine administered (Example 2), heparin 0.1 U/mL, argatroban 0.31 μg/mL, ADP 8.3 μM, collagen 10 μg/mL.

Like-named read-outs stand apart in the source and are kept apart here.

For the compound `CC1CNc2c(cccc2S(=O)(=O)N[C@@H](CCCNC(=N)N)C(=O)N2CC[C@@H](C)C[C@@H]2C(=O)O)C1` (stereo partly shown) [ARG, argatroban], the “A N G (rapidity of clot formation)” value in assay [1] was 44.5 ± 14.6. For the same compound, the K in assay [1] was 9.8 ± 5.1; in assay [1] (listed as argatroban) it was “lengthen”. The R is 29.8 ± 11.5 in assay [1] and “lengthen” in assay [1] (listed as argatroban). Besides, the R value in assay [2] (setting [5]) was 29.8 ± 11.5; in assay [2] (Comparative Example, blood with no antithrombotic agent administered, listed as argatroban) it was “lengthens”; in assay [2] (setting [6]), 29.7 ± 10.5; in assay [2] (setting [7]) it was 29.8 ± 9.5.
Consider `O=C1CCc2cc(OCCCCc3nnnn3C3CCCCC3)ccc2N1` [Cil, cilostazol], for which the “assessment of efficacy of the administered dose (R value shortened by ADP and collagen or not)” value in assay [3] (200 mg/day of Pletaal) was “functions adequately”. The same compound yielded a R value in assay [3] (200 mg/day of Pletaal for five days, blood sampled one hour after oral 100 mg, heparin 0.04 U/mL, argatroban 0.06 μg/mL) of 14.5 ± 3.7. Moreover, in assay [3] (Pletaal administered, 0.1 U/mL of heparin and 0.31 μg/mL of argatroban used, R value could not be determined), the “time until the blood begins to coagulate” value was “more than 3 hours”.
For the compound collagen [Col.], in assay [4] (in min (unit assumed)), the “K (time it takes a clot to be formed)” value is recorded as 2.5 ± 0.5 and the “R (time it takes for fibrin to be formed)” value is given as 5.3 ± 1.4. For the same compound, in assay [4], the “M A (maximum amplitude)” value is reported as 57.9 ± 3.9 and the “R + K” value is recorded as 7.8 ± 1.5. In assay [4] (listed as collagen), the “K (time it takes a clot to be formed)” value was “no significant difference”, the “R (time it takes for fibrin to be formed)” value is reported as “shortens significantly” and the “R + K” value is “shortens significantly”. Moreover, in assay [2], the “change of the R value lengthened by anticoagulant when ADP or collagen is added” value is recorded as “shortens significantly”.
Consider `Nc1ncnc2c1ncn2[C@@H]1O[C@H](COP(=O)(O)OP(=O)(O)O)[C@@H](O)[C@H]1O` [ADP, adenosine diphosphate], for which the “M A (maximum amplitude)” value in assay [4] is 57.9 ± 2.6. In assay [2], the “change of the R value lengthened by anticoagulant when ADP or collagen is added” value was “shortens significantly”.
Take heparin: in assay [1], the “A N G (rapidity of clot formation)” value is on record as 39.1 ± 13.9. Moreover, the values for the K in assay [1] and in assay [1] (listed as heparin) were 11.4 ± 6.2 and “lengthen”, respectively. For the same compound, the R was 26.4 ± 10.6 in assay [1] and “lengthen” in assay [1] (listed as heparin). For the same compound, the R value is 26.4 ± 10.6 in assay [2] (setting [5]); “lengthens” in assay [2] (Comparative Example, blood with no antithrombotic agent administered, listed as heparin); 28.6 ± 9.5 in assay [2] (setting [6]); 26.4 ± 10.6 in assay [2] (setting [7]).
Take `CC(=O)Oc1ccccc1C(=O)O` [ASP, aspirin]: the “assessment of efficacy of the administered dose (R value shortened by ADP and collagen or not)” value was “insufficient to function effectively” in assay [3] (81 mg/day of aspirin for three days) and “function adequately” in assay [3] (660 mg/day of aspirin for three days). Besides, the R value in assay [3] (81 mg/day of aspirin for three days, blood sampled one hour after oral 40.5 mg, heparin 0.1 U/mL, argatroban 0.31 μg/mL) was 6.4 ± 1.5; in assay [3] (660 mg/day of aspirin for three days, blood sampled one hour after oral 330 mg, heparin 0.1 U/mL, argatroban 0.31 μg/mL) it was 6.67 ± 1.7.
For `Cc1c(N(C)CS(=O)(=O)[O-])c(=O)n(-c2ccccc2)n1C.[Na+]` [Sulp, sulpyrine], the “assessment of efficacy of the administered dose (R value shortened by ADP and collagen or not)” value in assay [3] (250 mg of sulpyrine injected intramuscularly) is recorded as “functions adequately”. Besides, in assay [3] (blood sampled one hour after intramuscular injection of 250 mg of sulpyrine, heparin 0.1 U/mL, argatroban 0.31 μg/mL), the R value is 6.9 ± 2.1.
